Data taken from the supplement of paper PMC10307832.

Tests used:
Assay in all cases: relative viability (nuclei count vs DMSO), 5 days (fraction); higher = more cells survive
[1] = test system: NCI-H1437
Procedure, shortened: (§1)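 Five library-drug doses in √10 steps were combined with a fixed anchor-drug dose, or a single drug was given alone, by pin tool to lung cancer cell lines in 1536-well plates the day after seeding. Nuclei were stained and counted after 5 days. Relative viability is the nuclei count in treated wells over that in vehicle wells, taken as the median of duplicate plates.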

[2] = test system: NCI-H1792
Procedure, shortened: as §1

[3] = test system: NCI-H650
Procedure, shortened: as §1

[4] = test system: SK-MES-1
Procedure, shortened: as §1

[5] = test system: HCC-827
Procedure, shortened: as §1

[6] = test system: NCI-H596
Procedure, shortened: as §1

[7] = test system: SW 900
Procedure, shortened: as §1

[8] = test system: NCI-H1666
Procedure, shortened: as §1

[9] = test system: A-427
Procedure, shortened: as §1

[10] = test system: NCI-H1650
Procedure, shortened: as §1

[11] = test system: HCC-15
Procedure, shortened: as §1

[12] = test system: COR-L23
Procedure, shortened: as §1

[13] = test system: NCI-H1975
Procedure, shortened: as §1

[14] = test system: NCI-H2342
Procedure, shortened: as §1

[15] = test system: NCI-H358
Procedure, shortened: as §1

[16] = test system: NCI-H441
Procedure, shortened: as §1

[17] = test system: HARA
Procedure, shortened: as §1

[18] = test system: NCI-H838
Procedure, shortened: as §1

[19] = test system: 201T
Procedure, shortened: as §1

[20] = test system: NCI-H23
Procedure, shortened: as §1

[21] = test system: BEN
Procedure, shortened: as §1

[22] = test system: EKVX
Procedure, shortened: as §1

O=c1cc(-c2cccc3c2Sc2ccccc2S3)oc(N2CCOCC2)c1 + Cc1nc(Nc2ncc(C(=O)Nc3c(C)cccc3Cl)s2)cc(N2CCN(CCO)CC2)n1 [Dasatinib] (partner 0.075 µM)
relative viability ([1]; first compound 0.08 µM): 0.435
relative viability ([1]; first compound 0.253 µM): 0.488
relative viability ([1]; first compound 0.8 µM): 0.401
relative viability ([1]; first compound 2.53 µM): 0.339
relative viability ([1]; first compound 8 µM): 0.423
relative viability ([2]; first compound 0.08 µM): 0.791
relative viability ([2]; first compound 0.253 µM): 1.01
relative viability ([2]; first compound 0.8 µM): 0.617
relative viability ([2]; first compound 2.53 µM): 0.728
relative viability ([2]; first compound 8 µM): 1.04
relative viability ([3]; first compound 0.08 µM): 0.4
relative viability ([3]; first compound 0.253 µM): 0.412
relative viability ([3]; first compound 0.8 µM): 0.506
relative viability ([3]; first compound 8 µM): 0.488
relative viability ([4]; first compound 0.08 µM): 0.335
relative viability ([4]; first compound 0.253 µM): 0.256
relative viability ([4]; first compound 0.8 µM): 0.312
relative viability ([4]; first compound 2.53 µM): 0.317
relative viability ([4]; first compound 8 µM): 0.289
relative viability ([5]; first compound 0.08 µM): 0.285
relative viability ([5]; first compound 0.253 µM): 0.297
relative viability ([5]; first compound 0.8 µM): 0.37
relative viability ([5]; first compound 2.53 µM): 0.276
relative viability ([5]; first compound 8 µM): 0.348
relative viability ([6]; first compound 0.08 µM): 0.662
relative viability ([6]; first compound 0.253 µM): 0.636
relative viability ([6]; first compound 0.8 µM): 0.541
relative viability ([6]; first compound 2.53 µM): 0.504
relative viability ([6]; first compound 8 µM): 0.594
relative viability ([7]; first compound 0.08 µM): 0.503
relative viability ([7]; first compound 0.253 µM): 0.919
relative viability ([7]; first compound 0.8 µM): 0.352
relative viability ([7]; first compound 2.53 µM): 0.44
relative viability ([7]; first compound 8 µM): 0.538
relative viability ([8]; first compound 0.08 µM): 0.787
relative viability ([8]; first compound 0.253 µM): 0.781
relative viability ([8]; first compound 0.8 µM): 0.851
relative viability ([8]; first compound 2.53 µM): 0.768
relative viability ([8]; first compound 8 µM): 0.789
relative viability ([9]; first compound 0.08 µM): 0.695
relative viability ([9]; first compound 0.253 µM): 0.871
relative viability ([9]; first compound 0.8 µM): 0.744
relative viability ([9]; first compound 8 µM): 0.884
relative viability ([10]; first compound 0.08 µM): 0.327
relative viability ([10]; first compound 0.253 µM): 0.339
relative viability ([10]; first compound 0.8 µM): 0.259
relative viability ([10]; first compound 2.53 µM): 0.241
relative viability ([10]; first compound 8 µM): 0.267
relative viability ([11]; first compound 0.08 µM): 0.606
relative viability ([11]; first compound 0.253 µM): 0.733
relative viability ([11]; first compound 0.8 µM): 0.546
relative viability ([11]; first compound 2.53 µM): 0.563
relative viability ([11]; first compound 8 µM): 0.659
relative viability ([12]; first compound 0.08 µM): 0.564
relative viability ([12]; first compound 0.253 µM): 0.589
relative viability ([12]; first compound 0.8 µM): 0.571
relative viability ([12]; first compound 2.53 µM): 0.58
relative viability ([12]; first compound 8 µM): 0.504
relative viability ([13]; first compound 0.08 µM): 0.355
relative viability ([13]; first compound 0.253 µM): 0.35
relative viability ([13]; first compound 0.8 µM): 0.219
relative viability ([13]; first compound 2.53 µM): 0.239
relative viability ([13]; first compound 8 µM): 0.326
relative viability ([14]; first compound 0.08 µM): 0.312
relative viability ([14]; first compound 0.253 µM): 0.309
relative viability ([14]; first compound 0.8 µM): 0.304
relative viability ([14]; first compound 2.53 µM): 0.262
relative viability ([14]; first compound 8 µM): 0.336
relative viability ([15]; first compound 0.08 µM): 0.145
relative viability ([15]; first compound 0.253 µM): 0.163
relative viability ([15]; first compound 0.8 µM): 0.148
relative viability ([15]; first compound 2.53 µM): 0.152
relative viability ([15]; first compound 8 µM): 0.189
relative viability ([16]; first compound 0.08 µM): 0.599
relative viability ([16]; first compound 0.253 µM): 0.586
relative viability ([16]; first compound 0.8 µM): 0.7
relative viability ([16]; first compound 2.53 µM): 0.502
relative viability ([16]; first compound 8 µM): 0.658
relative viability ([17]; first compound 0.08 µM): 0.294
relative viability ([17]; first compound 0.253 µM): 0.31
relative viability ([17]; first compound 0.8 µM): 0.234
relative viability ([17]; first compound 2.53 µM): 0.241
relative viability ([17]; first compound 8 µM): 0.377
relative viability ([18]; first compound 0.08 µM): 0.273
relative viability ([18]; first compound 0.253 µM): 0.283
relative viability ([18]; first compound 0.8 µM): 0.276
relative viability ([18]; first compound 2.53 µM): 0.278
relative viability ([18]; first compound 8 µM): 0.273
relative viability ([19]; first compound 0.08 µM): 0.637
relative viability ([19]; first compound 0.253 µM): 0.599
relative viability ([19]; first compound 0.8 µM): 0.355
relative viability ([19]; first compound 2.53 µM): 0.521
relative viability ([19]; first compound 8 µM): 0.654
relative viability ([20]; first compound 0.08 µM): 0.721
relative viability ([20]; first compound 0.253 µM): 0.716
relative viability ([20]; first compound 0.8 µM): 0.783
relative viability ([20]; first compound 2.53 µM): 0.702
relative viability ([20]; first compound 8 µM): 0.86
relative viability ([21]; first compound 0.08 µM): 0.284
relative viability ([21]; first compound 0.253 µM): 0.353
relative viability ([21]; first compound 0.8 µM): 0.284
relative viability ([21]; first compound 2.53 µM): 0.318
relative viability ([21]; first compound 8 µM): 0.351
relative viability ([22]; first compound 0.08 µM): 0.605
relative viability ([22]; first compound 0.253 µM): 0.517
relative viability ([22]; first compound 0.8 µM): 0.315
relative viability ([22]; first compound 2.53 µM): 0.501
relative viability ([22]; first compound 8 µM): 0.355
